In US20230271954A1 (Gossamer Bio Services, Inc., priority 2020, published 2023):

Columns and labels:
[1] = target: DGKα (Homo sapiens, UniProt P23743); test: DGKα biochemical assay (ADP-Glo); conditions: read-out: DGK α IC50
Outline: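 ADP-Glo kinase assay using OAG/PS (1:2) lipid substrate, sonicated, in HEPES pH 7.0 buffer with MgCl2, CaCl2, DTT, BSA, Triton X-100. Enzyme preincubated with compound 30 min at RT; substrate with ATP (DGKα: 400 μM) added, 45 min RT. Luminescence read; % inhibition vs DMSO and no-enzyme controls.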

[2] = target: T1, DGKζ (Homo sapiens, UniProt Q13574); test: DGKζ biochemical assay (ADP-Glo); conditions: read-out: DGK ζ IC50
T1 construct: purchased Carna 12-110
T1 sequence (Q13574 1-929 isoform Q13574-4): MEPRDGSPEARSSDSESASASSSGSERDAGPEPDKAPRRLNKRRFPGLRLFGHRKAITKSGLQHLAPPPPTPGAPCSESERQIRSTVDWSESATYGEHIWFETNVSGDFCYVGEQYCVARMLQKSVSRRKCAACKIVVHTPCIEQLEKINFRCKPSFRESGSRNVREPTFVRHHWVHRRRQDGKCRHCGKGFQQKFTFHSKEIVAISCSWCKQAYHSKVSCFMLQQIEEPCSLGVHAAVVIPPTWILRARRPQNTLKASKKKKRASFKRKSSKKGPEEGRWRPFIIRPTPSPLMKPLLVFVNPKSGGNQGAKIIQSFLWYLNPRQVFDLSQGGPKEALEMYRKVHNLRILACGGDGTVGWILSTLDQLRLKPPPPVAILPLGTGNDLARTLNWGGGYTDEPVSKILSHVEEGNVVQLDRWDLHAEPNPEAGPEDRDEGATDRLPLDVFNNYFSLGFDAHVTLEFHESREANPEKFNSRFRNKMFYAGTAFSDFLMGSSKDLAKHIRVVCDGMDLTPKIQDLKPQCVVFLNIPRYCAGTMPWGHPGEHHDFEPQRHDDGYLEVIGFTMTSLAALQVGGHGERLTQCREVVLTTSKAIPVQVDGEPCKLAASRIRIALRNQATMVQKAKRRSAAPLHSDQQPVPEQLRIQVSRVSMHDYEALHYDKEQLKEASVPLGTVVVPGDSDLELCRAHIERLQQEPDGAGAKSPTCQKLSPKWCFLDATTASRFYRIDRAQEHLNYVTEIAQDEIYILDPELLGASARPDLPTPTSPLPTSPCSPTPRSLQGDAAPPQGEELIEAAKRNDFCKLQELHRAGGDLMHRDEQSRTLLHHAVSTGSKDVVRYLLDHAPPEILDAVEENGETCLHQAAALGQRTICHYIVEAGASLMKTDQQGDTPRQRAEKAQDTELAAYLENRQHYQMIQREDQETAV

DGKα, sequence (P23743 whole entry): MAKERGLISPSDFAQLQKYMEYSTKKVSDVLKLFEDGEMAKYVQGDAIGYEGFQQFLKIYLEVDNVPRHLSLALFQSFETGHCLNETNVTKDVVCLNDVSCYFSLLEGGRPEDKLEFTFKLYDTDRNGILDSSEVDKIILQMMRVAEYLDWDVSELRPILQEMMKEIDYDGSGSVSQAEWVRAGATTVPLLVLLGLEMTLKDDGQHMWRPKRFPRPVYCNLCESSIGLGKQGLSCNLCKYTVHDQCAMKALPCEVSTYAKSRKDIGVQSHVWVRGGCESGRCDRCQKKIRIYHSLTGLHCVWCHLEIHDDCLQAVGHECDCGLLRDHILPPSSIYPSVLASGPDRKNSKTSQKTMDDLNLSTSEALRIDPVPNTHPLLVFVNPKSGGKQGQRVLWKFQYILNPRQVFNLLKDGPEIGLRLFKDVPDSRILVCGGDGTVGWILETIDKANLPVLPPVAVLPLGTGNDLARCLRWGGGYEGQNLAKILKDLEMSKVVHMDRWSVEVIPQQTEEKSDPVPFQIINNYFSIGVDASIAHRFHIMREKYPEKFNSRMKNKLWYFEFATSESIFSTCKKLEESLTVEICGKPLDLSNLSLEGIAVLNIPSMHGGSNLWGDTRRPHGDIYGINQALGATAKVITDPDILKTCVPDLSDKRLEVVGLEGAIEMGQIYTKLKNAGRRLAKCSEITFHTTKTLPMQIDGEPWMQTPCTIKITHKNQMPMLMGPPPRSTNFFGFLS

| SMILES | IC50 [1] | IC50 [2] |
| --- | --- | --- |
| Cc1cc(F)cc(N(CC2CCC2)[C@H]2CC[C@H](N(C)c3c(C#N)c(=O)n(C)c4ccc(C#N)nc34)CC2)c1 [Example 94] | 0.1 to 1 µM | 0.1 to 1 µM |
| Cn1c(=O)c(C#N)c(N(C)[C@H]2CC[C@@H](N(CC3CC3)c3ccc(Cl)cc3)CC2)c2ncccc21 [Example 8, cis-4-((4-((4-chlorophenyl)(cyclopropylmethyl)amino)cyclohexyl)(methyl)amino)-1-methyl-2-oxo-1,2-dihydro-1,5-naphthyridine-3-carbonitrile] | 0.01 to 0.1 µM | ≥ 1 µM |
| Cn1c(=O)cc(N(C)[C@H]2CC[C@H](N(CC3CC3)c3cc(F)cc(F)c3)CC2)c2nc(C#N)ccc21 [Example 90] | ≥ 1 µM | ≥ 1 µM |
| Cn1c(=O)cc(N(C)[C@H]2CC[C@H](N(CC3CC3)c3ccc(F)c(OC(F)F)c3)CC2)c2nc(C#N)ccc21 [Example 80] | ≥ 1 µM | ≥ 1 µM |
| Cn1c(=O)c(C#N)c(N(C)[C@H]2CC[C@@H](N(CC3CCC3)c3ccc(F)cc3)CC2)c2nc(C#N)ccc21 [Example 42, cis-8-((-4-((cyclobutylmethyl)(4-fluorophenyl)amino)cyclohexyl)(methyl)amino)-5-methyl-6-oxo-5,6-dihydro-1,5-naphthyridine-2,7-dicarbonitrile] | < 0.01 µM | 0.1 to 1 µM |
| Cn1c(=O)c(C#N)c(N(C)[C@H]2CC[C@@H](N(CC3CCC3)c3cccc4c3OCO4)CC2)c2nc(Cl)ccc21 [Example 110, cis-4-((-4-(benzo[d][1,3]dioxol-4-yl(cyclobutylmethyl)amino)cyclohexyl)(methyl)amino)-6-chloro-1-methyl-2-oxo-1,2-dihydro-1,5-naphthyridine-3-carbonitrile] | 0.01 to 0.1 µM | 0.1 to 1 µM |
| CN1C(=O)CN([C@H]2CC[C@H](N(c3ccccc3O)C3CC3)CC2)c2nc(C#N)ccc21 [Example 2B, 4-(trans-4-(Cyclopropyl(2-hydroxyphenyl)amino)cyclohexyl)-1-methyl-2-oxo-1,2,3,4-tetrahydropyrido[3,2-b]pyrazine-6-carbonitrile] | 0.1 to 1 µM | ≥ 1 µM |
| Cc1[nH]c2ccccc2c1C(=O)N[C@H]1CC[C@H](N(CC2(C)COC2)c2ccccc2)CC1 [Example 4E, trans-2-Methyl-N-(4-(((3-methyloxetan-3-yl)methyl)(phenyl)amino)cyclohexyl)-1H-indole-3-carboxamide] | ≥ 1 µM | ≥ 1 µM |
| Cc1cc(F)ccc1N(CC1CCC1)[C@H]1CC[C@H](N(C)c2c(C#N)c(=O)n(C)c3ccc(Cl)nc23)CC1 [Example 104, trans-6-chloro-4-((4-((cyclobutylmethyl)(4-fluoro-2-methylphenyl)amino)cyclohexyl)(methyl)amino)-1-methyl-2-oxo-1,2-dihydro-1,5-naphthyridine-3-carbonitrile] | ≥ 1 µM | ≥ 1 µM |
| CC(C)CN(c1ccc(F)cc1)[C@H]1CC[C@@H](N(C)c2cc(=O)n(C)c3ccc(C#N)nc23)CC1 [Example 47, cis-8-((-4-((4-fluorophenyl)(isobutyl)amino)cyclohexyl)(methyl)amino)-5-methyl-6-oxo-5,6-dihydro-1,5-naphthyridine-2-carbonitrile] | 0.01 to 0.1 µM | ≥ 1 µM |

Results, then the molecule that gave them:

| IC50 [1] | IC50 [2] | SMILES |
| --- | --- | --- |
| 0.01 to 0.1 µM | 0.01 to 0.1 µM | Cn1c(=O)c(F)c(N(C)[C@H]2CC[C@@H](N(CC3COCCO3)c3ccc(F)cc3F)CC2)c2nc(C#N)ccc21 (stereo partly drawn) [Example 205, cis-8-((-4-(((1,4-dioxan-2-yl)methyl)(2,4-difluorophenyl)amino)cyclohexyl)(methyl)amino)-7-fluoro-5-methyl-6-oxo-5,6-dihydro-1,5-naphthyridine-2-carbonitrile] |
| ≥ 1 µM | 0.1 to 1 µM | Cn1c(=O)cc(N(C)[C@H]2CC[C@@H](N(CC3COCCO3)c3cccc4c3OCO4)CC2)c2nc(C#N)ccc21 (single isomer, unassigned) [Example 196, cis-8-((-4-((((R or S)-1,4-dioxan-2-yl)methyl) (benzo[d][1,3]dioxol-4-yl)amino)cyclohexyl)(methyl)amino)-5-methyl-6-oxo-5,6-dihydro-1,5-naphthyridine-2-carbonitrile] |
| < 0.01 µM | 0.01 to 0.1 µM | Cn1c(=O)c(C#N)c(N(C)[C@H]2CC[C@@H](N(CC3CCC3)c3cc4c(cc3F)OCO4)CC2)c2nc(C#N)ccc21 [Example 160, cis-8-((-4-((cyclobutylmethyl)(6-fluorobenzo[d][1,3]dioxol-5-yl)amino)cyclohexyl)(methyl)amino)-5-methyl-6-oxo-5,6-dihydro-1,5-naphthyridine-2,7-dicarbonitrile] |
| ≥ 1 µM | ≥ 1 µM | Cn1c(=O)cc(N(C)[C@H]2CC[C@@H](N(Cc3ccccc3)CC3CC3)CC2)c2nc(C#N)ccc21 [Example 214, cis-8-((-4-(benzyl(cyclopropylmethyl)amino)cyclohexyl)(methyl)amino)-5-methyl-6-oxo-5,6-dihydro-1,5-naphthyridine-2-carbonitrile] |
| ≥ 1 µM | ≥ 1 µM | Cn1c(=O)c(C#N)c(N(C)[C@H]2CC[C@@H](N(CC3CC3)c3cccc4c3oc(=O)n4C)CC2)c2nc(C#N)ccc21 [Example 200, cis-8-((-4-((cyclopropylmethyl)(3-methyl-2-oxo-2,3-dihydrobenzo[d]oxazol-7-yl)amino)cyclohexyl) (methyl)amino)-5-methyl-6-oxo-5,6-dihydro-1,5-naphthyridine-2,7-dicarbonitrile] |
| 0.1 to 1 µM | 0.1 to 1 µM | Cn1c(=O)c(C#N)c(N(C)[C@H]2CC[C@H](N(CC3CCC3)c3ccc4c(c3)OCCO4)CC2)c2nc(C#N)ccc21 [Example 171, trans-8-((4-((cyclobutylmethyl)(2,3-dihydrobenzo[b] [1,4]dioxin-6-yl)amino)cyclohexyl)(methyl)amino)-5-methyl-6-oxo-5,6-dihydro-1,5-naphthyridine-2,7-dicarbonitrile] |
| 0.1 to 1 µM | 0.1 to 1 µM | Cc1cc(N(CC2CC2)[C@H]2CC[C@H](N(C)c3c(C#N)c(=O)n(C)c4ccc(C#N)nc34)CC2)ccc1F [Example 125, trans-8-((4-((cyclopropylmethyl)(4-fluoro-3-methylphenyl)amino)cyclohexyl)(methyl)amino)-5-methyl-6-oxo-5,6-dihydro-1,5-naphthyridine-2,7-dicarbonitrile] |
| ≥ 1 µM | ≥ 1 µM | Cn1c(=O)c(C#N)c(N(C)[C@H]2CC[C@H](N(CC3CC3)c3cc4c(cn3)OCO4)CC2)c2nc(C#N)ccc21 [Example 212, trans-8-((-4-([1,3]dioxolo[4,5-c]pyridin-6-yl(cyclopropylmethyl)amino)cyclohexyl)(methyl)amino)-5-methyl-6-oxo-5,6-dihydro-1,5-naphthyridine-2,7-dicarbonitrile] |
| 0.1 to 1 µM | 0.01 to 0.1 µM | Cn1c(=O)c(C#N)c(N(C)[C@H]2CC[C@H](N(CC3CCC3)c3ccc(F)cc3C3CC3)CC2)c2nc(C#N)ccc21 [Example 127, trans-8-((-4-((cyclobutylmethyl)(2-cyclopropyl-4-fluorophenyl)amino)cyclohexyl)(methyl)amino)-5-methyl-6-oxo-5,6-dihydro-1,5-naphthyridine-2,7-dicarbonitrile] |
| < 0.01 µM | 0.1 to 1 µM | Cn1c(=O)cc(N(C)[C@H]2CC[C@@H](N(CC3COCCO3)c3ccc(F)cc3)CC2)c2nc(C#N)ccc21 (stereo partly drawn) [Example 163, cis-8-((-4-(((1,4-dioxan-2-yl)methyl)(4-fluorophenyl)amino)cyclohexyl)(methyl)amino)-5-methyl-6-oxo-5,6-dihydro-1,5-naphthyridine-2-carbonitrile] |
| 0.1 to 1 µM | ≥ 1 µM | Cn1c(=O)cc(N(C)[C@H]2CC[C@@H](N(C(=O)C3CC3)c3ccc(F)cc3)CC2)c2nc(C#N)ccc21 [Example 208, cis-N-(4-((6-cyano-1-methyl-2-oxo-1,2-dihydro-1,5-naphthyridin-4-yl)(methyl)amino)cyclohexyl)-N-(4-fluorophenyl)cyclopropanecarboxamide] |
| 0.1 to 1 µM | 0.1 to 1 µM | Cn1c(=O)cc(N(C)[C@H]2CC[C@@H](N(CC3CCOC3)c3ccc(F)c(OC(F)F)c3)CC2)c2nc(C#N)ccc21 (stereo partly drawn) [Example 156, cis-8-((-4-((3-(difluoromethoxy)-4-fluorophenyl) ((tetrahydrofuran-3-yl)methyl)amino)cyclohexyl) (methyl)amino)-5-methyl-6-oxo-5,6-dihydro-1,5-naphthyridine-2-carbonitrile] |
| ≥ 1 µM | 0.01 to 0.1 µM | Cc1ccc(F)cc1N(CC1CC1)[C@H]1CC[C@H](N(C)c2c(C#N)c(=O)n(C)c3ccc(C#N)nc23)CC1 [Example 117, trans-8-((4-((cyclopropylmethyl)(5-fluoro-2-methylphenyl)amino)cyclohexyl)(methyl)amino)-5-methyl-6-oxo-5,6-dihydro-1,5-naphthyridine-2,7-dicarbonitrile] |
| ≥ 1 µM | ≥ 1 µM | Cn1c(=O)c(C#N)c(N(C)[C@H]2CC[C@@H](N(CC3CC3)c3ccc4c(c3)C(=O)NC4)CC2)c2nc(C#N)ccc21 [Example 202, cis-8-((-4-((cyclopropylmethyl)(3-oxoisoindolin-5-yl)amino)cyclohexyl)(methyl)amino)-5-methyl-6-oxo-5,6-dihydro-1,5-naphthyridine-2,7-dicarbonitrile] |
| 0.01 to 0.1 µM | 0.1 to 1 µM | Cn1c(=O)c(C#N)c(N(C)[C@H]2CC[C@H](N(CC3CCC3)c3cccc4c3OCO4)CC2)c2nc(C#N)ccc21 [Example 112, trans-8-((-4-(benzo[d][1,3]dioxol-4-yl(cyclobutylmethyl)amino)cyclohexyl)(methyl)amino)-5-methyl-6-oxo-5,6-dihydro-1,5-naphthyridine-2,7-dicarbonitrile] |
